These results are taken from ChEMBL document CHEMBL1155750, “Four new coumarin derivatives from Artemisia keiskeana” (J Nat Prod, 2001).

Converted amounts (≈) assume the structure as drawn.

Data set [1] is described as follows: Toxicity in brine shrimp. Type of data set: organism-based. Particulars: artemia, in vivo.
In the next data set the test system is Artemia. The data set can be described thus: Toxicity in brine shrimp at 100 ug/mL. Type of data set: organism-based. Particulars: in vivo.

With `COc1cc2ccc(=O)oc2cc1OC/C=C(\C)CC/C=C(\C)CO` [ARTEKEISKEANOL A], the LC50 in data set [1] is 60 µg/mL (≈ 174 µM).

In the case of `COc1cc2ccc(=O)oc2c(OC)c1OC/C=C(\C)CC/C=C(/C)CO` [ARTEKEISKEANOL D], the Activity result with Artemia was “Non-toxic”.

As to `COc1cc2ccc(=O)oc2c(OC)c1OC/C=C(\C)CC/C=C(\C)CO` [ARTEKEISKEANOL C], the Activity result in the data set on Artemia was “Non-toxic”.

`COc1cc2ccc(=O)oc2cc1OC/C=C(\C)CC/C=C(/C)CO` [ARTEKEISKEANOL B] came in with an LC50 in data set [1] of 70 µg/mL (≈ 203 µM).
